On the set-up of data set [1]: method as in earlier work. The conditions noted are these: healthy subjects, ref 43 (Di Pede et al.), cited from earlier work; for Cmax: human plasma, after PACs intake, read-out: C MAX (mean ± SD) in plasma; for average urinary excretion (% of ingested dose): human urine.
The nature of data set [2]: In vitro transport study across 5‐day Wt‐MDCK monolayers. It counts as in vitro ADME, canine. The conditions noted are these: dog, Wt‐MDCK model, N = 4; for Papp A→B at 120 min: absorptive direction, read-out: P app A–B (mean ± SD); for Papp A→B at 120 min / Papp B→A at 120 min: VL 50 μM dosed (VLS formed as metabolite), controls 10 μM; for Papp B→A at 120 min: secretory direction, read-out: P app B–A (mean ± SD); for efflux ratio at 120 min: Papp(B−A)/Papp(A−B), read-out: Efflux ratio (mean ± SD). As to the method: (§1) Caco2 cells between passage numbers 42–50 and MDCK cells between passage numbers 21–26 were used for transport studies; the assay was conducted as reported by Volpe^[ [33] ^] with slight modifications. Transport experiments were performed in 12‐well Transwell plates. Caco2 cells were seeded at a density of 60,000 cells/cm^2 and grown for 21 days, with change of media every 3 days, while MDCK cells were seeded at a density of 70,000 cells/cm^2 and grown for 5 days, changing the medium daily. The physiological and morphological formation of a confluent monolayer was evaluated by measuring the TEER value: Caco2 monolayers became confluent 1 week after seeding with TEER values greater than 450 Ω/cm^2, while MDCK monolayers became confluent 24 h after seeding with TEER values greater than 90 Ω/cm^2. Phenol red and serum‐free DMEM/F12 medium was used as transport buffer. For bidirectional transport, VL (50 μM) and control compound (propranolol and paclitaxel, 10 μM) were added to the apical side to determine apical to basolateral transport (A–B; absorptive direction) and to the basal side to determine basolateral to apical transport (B–A; secretory direction). The volume of the apical and basolateral chambers was 0.5 and 1.5 mL, respectively. Aliquots of 120 μL were taken from the basolateral (for A–B transport) or the apical (for B–A transport) chamber at 30, 60, 90, and 120 min. An equal volume was replaced with a transport buffer at every time point. At the beginning and at the end of the experiment, an aliquot was also taken from the apical or basolateral chamber for analysis of the drug. To determine the integrity of monolayers, TEER values were measured before and after the experiment. In addition, at the end of the experiment cells were collected and lysed to evaluate the compound intake. Briefly, cells were washed twice with cold PBS and 200 µL of cold MeOH was added to detach and lysate the cells; subsequently, cells were collected into lo‐bind Eppendorf and sonicated in ice for 10 min, then centrifuged for 15 min at 4°C at 14,000 rpm (Eppendorf Centrifuge 5430 R). The supernatant was collected and used for further analysis.
(§2) The apparent permeability P app (cm/s) of compounds was calculated from the following equation (Equation 1), while P app (cm/s) of the metabolites was calculated from the equation (Equation 2): (1) Papp=dQ/dt×1/C×1/A.
(§3) Equation (1) for calculating P app (cm/s) of tested reference compounds. (2) Papp=Metabolic cleareance/A.
(§4) Equation (2) for calculating P app (cm/s) of compound metabolites.
(§5) with Metabolic cleareance=Rate of metabolism/C and where dQ/dt is the rate of transport, C is the initial concentration in the donor compartment, and A is the surface area of the filter. To quantify the rate of transport, cumulative amounts of test compounds were plotted against time (min).
(§6) Efflux ratio was calculated using the following equation (Equation 3)^[ [48] ^]: (3) Efflux ratio=Papp(B−A)/Papp(A−B).

The next data set concerns Wt‐MDCK monolayers. The data set is described as above. The conditions noted are these: Wt‐MDCK model, VL 50 μM dosed (VLS formed as metabolite), controls 10 μM, N = 4; for P app A–B (mean ± SD): absorptive direction; for P app B–A (mean ± SD): secretory direction. It counts as in vitro ADME, canine. As to the method:
as §1, §2, §3, §4, §5, §6

Data set [3] is described as follows: In vitro transport study across 21‐day Caco2 monolayers. It counts as in vitro ADME, human. The following applies: human, Caco-2, Caco2 model, N = 4; for Papp A→B at 120 min: absorptive direction, read-out: P app A–B (mean ± SD); for Papp A→B at 120 min / Papp B→A at 120 min: VL 50 μM dosed (VLS formed as metabolite), controls 10 μM; for Papp B→A at 120 min: secretory direction, read-out: P app B–A (mean ± SD); for efflux ratio at 120 min: Papp(B−A)/Papp(A−B), read-out: Efflux ratio (mean ± SD). As to the method:
as §1, §2, §3, §4, §5, §6
For orientation: Caco-2 monolayers are a common model of the intestinal barrier.

For the next data set, the system named is Caco2 monolayers. The description is as above. The conditions noted are these: Caco2 model, VL 50 μM dosed (VLS formed as metabolite), controls 10 μM, N = 4; for P app A–B (mean ± SD): absorptive direction; for P app B–A (mean ± SD): secretory direction. It counts as in vitro ADME, human. As to the method: as §1, §2, §3, §4, §5, §6
For another data set, the system named is Wt‐MDCK cells. Description: MTT cell viability assay. It is filed as cell-based, canine. The conditions noted are these: 20 μM, data not shown. As to the method:
(§7) The effect of test samples on cell viability was measured using an MTT assay. Briefly, exponentially growing 2 × 10^4 cells/200 μL were seeded in 96‐well plates and allowed to grow until reaching their differentiation state. Cells were treated with different concentrations of VL (50–1.6 µM) and positive control camptothecin (30–1 μM) serially diluted in serum‐free medium. After incubation, 10 μL of MTT dye (5 mg/mL stock in PBS) was added to each well, and plates were additionally incubated for 4 h. Further, media were aspirated, and cells were washed with 100 μL of phosphate buffer saline. The formazan blue crystals formed by viable cells were dissolved in 150 μL of DMSO, and the absorbance was measured at 580 nm on a Bio‐Tek, Synergy HT Multi‐Mode, plate reader. The % decrease in viability of sample‐treated cells was calculated compared with vehicle‐treated cells.^[ [46] ^]
(In general: Tetrazolium assays rely on reduction of a dye to a coloured formazan, in cell work by metabolically active cells.)

Another data set concerns Caco2 cells. Description: MTT cell viability assay. It counts as cell-based, human. The following applies: Caco2, 20 μM, data not shown. On the procedure:
as §7

In a further data set the test system is LS174T cells. The data set is described as follows: MTT cell viability assay. The conditions noted are these: 20 μM, data not shown. It counts as cell-based, human. On the procedure: as §7
A further data set deals with HepG2 cells. Description: MTT cell viability assay. It counts as cell-based, human. The conditions noted are these: HepG2, 20 μM, data not shown. On the procedure: as §7

As for `O=C1CC[C@H](Cc2ccc(OS(=O)(=O)O)c(O)c2)O1` [3ʹ‐OH‐PVL‐4ʹ‐sulfate], in data set [1], the Cmax was 0.368 ± 0.156 µM and the “average urinary excretion (% of ingested dose)” value is 11.3% ± 14.8%.

For the compound `O=C1CC[C@H](Cc2ccc(O)c(OC3OC(C(=O)O)C(O)C(O)C3O)c2)O1` (some centres unmarked) [4ʹ‐OH‐PVL‐3ʹ‐glucuronide], in data set [1], the Cmax is 0.229 ± 0.345 µM and the “average urinary excretion (% of ingested dose)” value was 3.1% ± 3.3%.

Turning to `CC(=O)O[C@H]1C(=O)[C@@]2(C)[C@H]([C@H](OC(=O)c3ccccc3)[C@]3(O)C[C@H](OC(=O)[C@H](O)[C@@H](NC(=O)c4ccccc4)c4ccccc4)C(C)=C1C3(C)C)[C@]1(OC(C)=O)CO[C@@H]1C[C@@H]2O` [Paclitaxel], in data set [2], the Papp A→B at 120 min was 51.8 nm/s, the Papp B→A at 120 min was found to be 29.5 nm/s and the efflux ratio at 120 min is 0.55 ± 0.089. In the data set on Wt‐MDCK monolayers, the “P app A–B (mean ± SD)” value came out at 51.83 nm/s and the “P app B–A (mean ± SD)” value came out at 29.52 nm/s. For the same compound, in data set [3], the Papp A→B at 120 min is 12 nm/s, the Papp B→A at 120 min amounted to 34.2 nm/s and the efflux ratio at 120 min is 2.54 ± 2.06. In the data set with Caco2 monolayers, the “P app A–B (mean ± SD)” value came to 12.02 nm/s and the “P app B–A (mean ± SD)” value is 34.21 nm/s.

On to `CC(C)NCC(O)COc1cccc2ccccc12` (centres unmarked) [Propranolol], for which, in [2], the Papp A→B at 120 min was found to be 100 nm/s, the Papp B→A at 120 min turned out to be 53.6 nm/s and the efflux ratio at 120 min is 0.535 ± 0.058. Also, in the data set on Wt‐MDCK monolayers, the “P app A–B (mean ± SD)” value stood at 100.5 nm/s and the “P app B–A (mean ± SD)” value came to 53.64 nm/s. In data set [3], the Papp A→B at 120 min worked out at 154 nm/s, the Papp B→A at 120 min was determined as 130 nm/s and the efflux ratio at 120 min amounted to 0.859 ± 0.085. Further, in the data set with Caco2 monolayers, the “P app A–B (mean ± SD)” value came to 153.9 nm/s and the “P app B–A (mean ± SD)” value was found to be 129.6 nm/s.

On to `CC[C@@]1(O)C(=O)OCc2c1cc1n(c2=O)Cc2cc3ccccc3nc2-1` [camptothecin], for which the “effect on cell viability” value in the data set with Wt‐MDCK cells, in the data set on Caco2 cells, in the data set on LS174T cells and with HepG2 cells was “dramatically reduced the viability” throughout.

Consider `COc1cccc2c1C(=O)c1c(O)c3c(c(O)c1C2=O)C[C@@](O)(C(=O)CO)C[C@@H]3O[C@H]1C[C@H](N)[C@H](O)[C@H](C)O1` [doxorubicin], for which the “effect on cell viability” value in the data set on Wt‐MDCK cells, with Caco2 cells, with LS174T cells and in the data set with HepG2 cells was “dramatically reduced the viability” in each case.

These data come from PMC11726150, “Pre‐ADMET studies of 5‐(3′,4′‐dihydroxyphenyl)‐γ‐valerolactone, the bioactive intestinal metabolite of proanthocyanidins” (Archiv Der Pharmazie, 2024).
